We go through 13 molecules from ChEMBL document CHEMBL3991601, “The target landscape of clinical kinase drugs” (Science, 2017).

Calls of active or inactive are those of the source.

Assay [1] addresses RAC-gamma serine/threonine-protein kinase (Homo sapiens, UniProt Q9Y243).
Assay [2] concerns the target Insulin-like growth factor 1 receptor (Homo sapiens, UniProt P08069).
In assay [3] the target is Mitogen-activated protein kinase kinase kinase kinase 1 (Homo sapiens, UniProt Q92918).
Assay [4] deals with T1, Serine/threonine-protein kinase Nek3 (Homo sapiens, UniProt P51956).
T1 sequence (P51956 whole entry): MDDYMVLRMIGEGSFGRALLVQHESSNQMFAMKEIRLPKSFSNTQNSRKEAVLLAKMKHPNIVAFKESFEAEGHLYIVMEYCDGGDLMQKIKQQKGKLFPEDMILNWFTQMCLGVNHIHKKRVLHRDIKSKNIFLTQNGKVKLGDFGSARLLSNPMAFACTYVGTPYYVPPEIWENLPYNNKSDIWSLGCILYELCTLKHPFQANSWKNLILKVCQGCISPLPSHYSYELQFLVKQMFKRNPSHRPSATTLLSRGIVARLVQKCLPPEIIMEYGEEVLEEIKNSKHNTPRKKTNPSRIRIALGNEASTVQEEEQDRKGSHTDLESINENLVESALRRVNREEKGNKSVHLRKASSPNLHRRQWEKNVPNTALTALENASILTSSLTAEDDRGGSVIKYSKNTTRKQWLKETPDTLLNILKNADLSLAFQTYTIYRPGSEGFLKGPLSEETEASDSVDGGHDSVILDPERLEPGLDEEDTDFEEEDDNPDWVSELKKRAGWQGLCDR

For the next assay, the target named is T2, Rab-like protein 3 (Homo sapiens, UniProt Q5HYI8).
T2 sequence (Q5HYI8 whole entry): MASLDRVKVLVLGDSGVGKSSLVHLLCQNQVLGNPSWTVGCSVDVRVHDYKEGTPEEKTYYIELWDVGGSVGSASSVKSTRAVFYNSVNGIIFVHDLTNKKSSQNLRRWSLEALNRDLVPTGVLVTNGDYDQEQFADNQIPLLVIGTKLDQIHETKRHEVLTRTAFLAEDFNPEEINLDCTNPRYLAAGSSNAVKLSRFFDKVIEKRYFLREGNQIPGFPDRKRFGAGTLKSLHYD

The target in assay [5] is T3, Serine/threonine-protein kinase NLK (Homo sapiens, UniProt Q9UBE8).
T3 sequence (Q9UBE8 whole entry): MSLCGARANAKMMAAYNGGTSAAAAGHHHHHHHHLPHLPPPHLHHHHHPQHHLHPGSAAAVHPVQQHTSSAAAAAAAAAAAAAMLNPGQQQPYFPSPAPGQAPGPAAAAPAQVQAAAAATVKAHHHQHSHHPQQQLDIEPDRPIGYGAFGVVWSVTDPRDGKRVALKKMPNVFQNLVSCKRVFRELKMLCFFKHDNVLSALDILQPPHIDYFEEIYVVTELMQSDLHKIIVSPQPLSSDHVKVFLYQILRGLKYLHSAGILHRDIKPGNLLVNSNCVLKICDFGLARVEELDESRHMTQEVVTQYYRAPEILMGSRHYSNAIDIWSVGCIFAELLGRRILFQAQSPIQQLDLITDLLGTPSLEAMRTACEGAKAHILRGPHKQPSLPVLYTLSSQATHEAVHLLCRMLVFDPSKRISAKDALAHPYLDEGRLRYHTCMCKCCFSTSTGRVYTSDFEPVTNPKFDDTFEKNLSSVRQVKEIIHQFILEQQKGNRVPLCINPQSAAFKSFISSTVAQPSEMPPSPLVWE

For assay [6], the target named is U5 small nuclear ribonucleoprotein 200 kDa helicase (Homo sapiens, UniProt O75643).
U5 small nuclear ribonucleoprotein 200 kDa helicase, sequence (O75643 whole entry): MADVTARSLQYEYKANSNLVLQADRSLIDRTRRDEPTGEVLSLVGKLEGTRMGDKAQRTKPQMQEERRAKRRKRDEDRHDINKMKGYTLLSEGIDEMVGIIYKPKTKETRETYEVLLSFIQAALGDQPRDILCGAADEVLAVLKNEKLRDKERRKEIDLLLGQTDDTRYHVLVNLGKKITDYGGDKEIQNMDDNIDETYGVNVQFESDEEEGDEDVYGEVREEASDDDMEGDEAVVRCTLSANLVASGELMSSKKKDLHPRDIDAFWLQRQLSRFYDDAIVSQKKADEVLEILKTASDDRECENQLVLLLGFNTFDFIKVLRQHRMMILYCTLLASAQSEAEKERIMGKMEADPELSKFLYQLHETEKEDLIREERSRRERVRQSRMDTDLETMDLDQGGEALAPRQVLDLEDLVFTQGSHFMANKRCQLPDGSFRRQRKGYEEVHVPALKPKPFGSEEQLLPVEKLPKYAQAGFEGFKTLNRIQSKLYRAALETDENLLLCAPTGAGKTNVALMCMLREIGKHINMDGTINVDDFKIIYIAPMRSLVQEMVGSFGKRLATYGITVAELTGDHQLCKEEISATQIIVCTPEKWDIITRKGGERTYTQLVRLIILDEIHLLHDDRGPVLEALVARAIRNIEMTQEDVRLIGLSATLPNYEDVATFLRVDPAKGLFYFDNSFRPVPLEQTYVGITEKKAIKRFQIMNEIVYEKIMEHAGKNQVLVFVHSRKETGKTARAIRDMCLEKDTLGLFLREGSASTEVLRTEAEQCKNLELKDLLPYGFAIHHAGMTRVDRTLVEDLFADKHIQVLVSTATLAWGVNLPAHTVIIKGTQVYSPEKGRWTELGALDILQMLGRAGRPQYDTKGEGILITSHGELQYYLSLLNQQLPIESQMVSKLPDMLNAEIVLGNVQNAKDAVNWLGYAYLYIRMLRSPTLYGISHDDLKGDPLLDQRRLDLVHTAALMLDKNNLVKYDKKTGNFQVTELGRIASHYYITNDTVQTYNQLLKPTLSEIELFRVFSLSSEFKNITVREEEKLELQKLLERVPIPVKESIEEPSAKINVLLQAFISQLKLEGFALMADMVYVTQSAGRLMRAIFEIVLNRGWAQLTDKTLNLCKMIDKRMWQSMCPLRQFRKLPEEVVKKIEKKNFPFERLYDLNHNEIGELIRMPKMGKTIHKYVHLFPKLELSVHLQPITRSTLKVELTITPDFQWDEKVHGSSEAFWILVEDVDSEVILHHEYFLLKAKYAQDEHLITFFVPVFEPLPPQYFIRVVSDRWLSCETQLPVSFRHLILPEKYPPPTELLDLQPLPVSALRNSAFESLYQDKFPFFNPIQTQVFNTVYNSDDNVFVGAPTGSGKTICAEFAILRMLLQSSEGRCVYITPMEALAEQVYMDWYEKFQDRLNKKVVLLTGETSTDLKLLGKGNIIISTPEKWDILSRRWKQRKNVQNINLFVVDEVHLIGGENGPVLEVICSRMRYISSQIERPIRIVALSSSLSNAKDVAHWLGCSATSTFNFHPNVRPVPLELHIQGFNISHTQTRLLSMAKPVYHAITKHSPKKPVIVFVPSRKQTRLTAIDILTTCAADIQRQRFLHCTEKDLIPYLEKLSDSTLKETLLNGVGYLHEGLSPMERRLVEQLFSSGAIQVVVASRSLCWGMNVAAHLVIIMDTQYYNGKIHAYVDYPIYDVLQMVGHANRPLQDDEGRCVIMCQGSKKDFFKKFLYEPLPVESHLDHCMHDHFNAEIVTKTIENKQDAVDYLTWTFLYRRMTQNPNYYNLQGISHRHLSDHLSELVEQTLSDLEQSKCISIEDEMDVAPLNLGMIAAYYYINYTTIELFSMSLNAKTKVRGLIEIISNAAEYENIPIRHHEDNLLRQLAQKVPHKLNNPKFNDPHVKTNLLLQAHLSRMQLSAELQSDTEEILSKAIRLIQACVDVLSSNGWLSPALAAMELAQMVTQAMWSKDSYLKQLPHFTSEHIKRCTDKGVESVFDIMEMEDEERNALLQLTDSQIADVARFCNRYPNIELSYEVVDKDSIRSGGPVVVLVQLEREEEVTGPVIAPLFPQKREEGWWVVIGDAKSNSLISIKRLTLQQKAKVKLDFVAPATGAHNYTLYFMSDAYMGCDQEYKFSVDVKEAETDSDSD
For assay [7], the target named is T4, Breakpoint cluster region protein (Homo sapiens, UniProt P11274).
T4 sequence (P11274 whole entry): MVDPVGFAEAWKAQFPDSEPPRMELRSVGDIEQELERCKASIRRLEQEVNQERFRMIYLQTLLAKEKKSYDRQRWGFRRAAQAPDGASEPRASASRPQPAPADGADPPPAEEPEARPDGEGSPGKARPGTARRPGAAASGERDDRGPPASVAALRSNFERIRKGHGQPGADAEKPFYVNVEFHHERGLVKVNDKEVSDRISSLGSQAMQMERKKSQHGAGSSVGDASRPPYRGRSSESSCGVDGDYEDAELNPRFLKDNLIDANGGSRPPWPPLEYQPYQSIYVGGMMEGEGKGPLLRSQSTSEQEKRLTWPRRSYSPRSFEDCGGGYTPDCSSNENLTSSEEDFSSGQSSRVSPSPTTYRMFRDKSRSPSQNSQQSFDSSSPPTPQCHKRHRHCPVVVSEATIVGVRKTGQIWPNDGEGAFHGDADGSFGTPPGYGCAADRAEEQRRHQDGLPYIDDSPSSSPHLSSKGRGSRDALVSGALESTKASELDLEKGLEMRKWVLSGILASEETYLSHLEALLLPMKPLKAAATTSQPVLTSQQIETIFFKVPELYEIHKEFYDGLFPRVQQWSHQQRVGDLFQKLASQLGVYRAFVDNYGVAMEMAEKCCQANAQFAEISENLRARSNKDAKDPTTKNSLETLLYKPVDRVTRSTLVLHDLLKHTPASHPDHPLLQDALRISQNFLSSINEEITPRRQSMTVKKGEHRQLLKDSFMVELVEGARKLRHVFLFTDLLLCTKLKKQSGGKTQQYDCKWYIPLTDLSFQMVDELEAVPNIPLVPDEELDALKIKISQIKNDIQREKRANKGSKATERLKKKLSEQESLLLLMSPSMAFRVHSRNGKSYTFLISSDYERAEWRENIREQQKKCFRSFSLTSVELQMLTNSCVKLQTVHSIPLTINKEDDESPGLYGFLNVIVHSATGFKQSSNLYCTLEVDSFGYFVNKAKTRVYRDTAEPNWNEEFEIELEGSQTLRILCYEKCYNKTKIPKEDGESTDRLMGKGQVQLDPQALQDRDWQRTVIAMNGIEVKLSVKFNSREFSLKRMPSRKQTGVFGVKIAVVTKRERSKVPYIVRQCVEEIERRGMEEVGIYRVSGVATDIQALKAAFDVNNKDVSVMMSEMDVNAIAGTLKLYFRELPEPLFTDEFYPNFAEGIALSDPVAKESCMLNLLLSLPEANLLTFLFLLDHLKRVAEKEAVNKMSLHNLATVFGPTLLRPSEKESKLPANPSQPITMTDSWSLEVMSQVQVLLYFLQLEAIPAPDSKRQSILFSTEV

In general, Kd refers to a measure of binding affinity in units of concentration.
Note: in the data inactive means no Kd found up to 30 µM.

RAC-gamma serine/threonine-protein kinase, sequence (Q9Y243 whole entry): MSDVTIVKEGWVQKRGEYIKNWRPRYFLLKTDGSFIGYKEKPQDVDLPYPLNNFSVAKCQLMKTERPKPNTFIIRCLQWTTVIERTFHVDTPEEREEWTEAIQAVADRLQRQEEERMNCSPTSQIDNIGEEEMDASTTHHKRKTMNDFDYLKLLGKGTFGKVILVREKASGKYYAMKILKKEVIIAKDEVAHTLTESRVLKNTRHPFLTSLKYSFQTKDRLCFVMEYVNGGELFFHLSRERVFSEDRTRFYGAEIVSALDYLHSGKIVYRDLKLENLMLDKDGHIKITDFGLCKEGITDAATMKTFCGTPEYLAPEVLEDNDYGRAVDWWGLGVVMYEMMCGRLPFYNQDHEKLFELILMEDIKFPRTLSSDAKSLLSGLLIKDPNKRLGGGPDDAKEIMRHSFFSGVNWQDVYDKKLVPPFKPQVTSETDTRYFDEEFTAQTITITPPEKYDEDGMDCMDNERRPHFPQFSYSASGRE
Mitogen-activated protein kinase kinase kinase kinase 1, sequence (Q92918 whole entry): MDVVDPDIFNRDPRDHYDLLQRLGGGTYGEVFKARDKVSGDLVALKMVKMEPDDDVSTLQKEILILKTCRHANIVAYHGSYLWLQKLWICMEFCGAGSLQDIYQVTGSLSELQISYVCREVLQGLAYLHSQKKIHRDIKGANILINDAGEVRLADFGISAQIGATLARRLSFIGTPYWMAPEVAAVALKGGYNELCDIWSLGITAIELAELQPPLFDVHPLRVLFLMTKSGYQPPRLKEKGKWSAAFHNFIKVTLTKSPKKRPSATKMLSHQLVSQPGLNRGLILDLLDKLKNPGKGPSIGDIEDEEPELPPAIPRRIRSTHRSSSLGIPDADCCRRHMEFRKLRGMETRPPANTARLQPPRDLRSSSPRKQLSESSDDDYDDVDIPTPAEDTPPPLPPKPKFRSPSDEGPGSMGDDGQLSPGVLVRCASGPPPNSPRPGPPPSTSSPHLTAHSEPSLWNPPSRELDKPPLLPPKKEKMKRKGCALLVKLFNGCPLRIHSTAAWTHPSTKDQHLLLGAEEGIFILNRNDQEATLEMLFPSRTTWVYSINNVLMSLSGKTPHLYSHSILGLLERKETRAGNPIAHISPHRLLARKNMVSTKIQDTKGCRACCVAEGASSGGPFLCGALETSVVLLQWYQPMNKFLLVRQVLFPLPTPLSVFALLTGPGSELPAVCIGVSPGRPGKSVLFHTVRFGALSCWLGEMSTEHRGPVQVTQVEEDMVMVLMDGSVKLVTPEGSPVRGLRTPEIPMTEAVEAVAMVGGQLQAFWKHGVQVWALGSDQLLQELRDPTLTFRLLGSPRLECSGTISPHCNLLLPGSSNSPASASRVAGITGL
Insulin-like growth factor 1 receptor, sequence (P08069 31-736 limits assumed): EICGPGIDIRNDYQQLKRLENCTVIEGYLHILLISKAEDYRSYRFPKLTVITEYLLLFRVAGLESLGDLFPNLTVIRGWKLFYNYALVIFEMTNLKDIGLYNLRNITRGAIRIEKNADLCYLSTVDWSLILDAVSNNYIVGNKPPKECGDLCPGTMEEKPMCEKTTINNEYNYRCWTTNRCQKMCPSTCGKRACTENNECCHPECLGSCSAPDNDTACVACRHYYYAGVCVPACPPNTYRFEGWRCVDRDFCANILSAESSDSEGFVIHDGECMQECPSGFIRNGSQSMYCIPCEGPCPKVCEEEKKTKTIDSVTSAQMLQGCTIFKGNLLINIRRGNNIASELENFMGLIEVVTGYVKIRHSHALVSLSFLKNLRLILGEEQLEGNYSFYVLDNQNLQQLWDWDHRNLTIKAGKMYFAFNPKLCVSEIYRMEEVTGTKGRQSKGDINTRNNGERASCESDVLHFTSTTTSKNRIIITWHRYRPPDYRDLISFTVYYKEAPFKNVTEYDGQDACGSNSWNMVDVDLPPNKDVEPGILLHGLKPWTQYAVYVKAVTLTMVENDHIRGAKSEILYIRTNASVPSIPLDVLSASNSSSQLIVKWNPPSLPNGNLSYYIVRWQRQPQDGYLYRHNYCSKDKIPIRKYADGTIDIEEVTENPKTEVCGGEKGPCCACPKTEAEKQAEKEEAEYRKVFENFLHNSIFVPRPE
Insulin-like growth factor 1 receptor, sequence (P08069 741-1367 limits assumed): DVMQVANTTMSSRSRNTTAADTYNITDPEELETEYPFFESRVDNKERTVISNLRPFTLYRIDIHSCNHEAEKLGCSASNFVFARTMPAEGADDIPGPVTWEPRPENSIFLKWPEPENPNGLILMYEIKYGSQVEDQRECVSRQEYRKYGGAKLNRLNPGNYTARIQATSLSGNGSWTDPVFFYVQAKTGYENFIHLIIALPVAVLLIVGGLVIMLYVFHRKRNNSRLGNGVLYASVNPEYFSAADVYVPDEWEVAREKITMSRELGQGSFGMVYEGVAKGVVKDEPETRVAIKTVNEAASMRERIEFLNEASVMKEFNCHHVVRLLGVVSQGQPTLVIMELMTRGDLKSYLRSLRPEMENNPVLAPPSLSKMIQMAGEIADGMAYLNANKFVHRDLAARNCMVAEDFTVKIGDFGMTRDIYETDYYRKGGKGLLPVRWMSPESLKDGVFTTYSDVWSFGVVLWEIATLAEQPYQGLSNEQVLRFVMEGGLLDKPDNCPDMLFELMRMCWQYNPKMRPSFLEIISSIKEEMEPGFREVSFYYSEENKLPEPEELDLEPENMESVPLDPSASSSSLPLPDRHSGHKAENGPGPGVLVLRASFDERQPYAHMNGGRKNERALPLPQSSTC

Take `CC[C@@](C)(Nc1ccnc(-c2c[nH]c3ncccc23)n1)C(=O)NCC(F)(F)F` [DECERNOTINIB]: the Kd (in assay [1]; in assay [2]; in assay [3]; in assay [4]; on Rab-like protein 3; in assay [5]) was > 30 µM (inactive) in each case. The Kd in assay [6] and in assay [7] was > 30 µM (inactive) in each case.

Take `O=S(=O)(c1cccc2c(O)nccc12)N1CCCNCC1` [HYDROXYFASUDIL]: the Kd (in assay [1]; in assay [2]; in assay [3]; in assay [4]; at Rab-like protein 3; in assay [5]) was > 30 µM (inactive) in each case. The Kd in assay [6] and in assay [7] was > 30 µM (inactive) in each case.

Regarding `CN1CCN(c2nc(C3=C(c4c[nH]c5ccccc45)C(=O)NC3=O)c3ccccc3n2)CC1` [SOTRASTAURIN], the Kd (in assay [1]; in assay [2]; in assay [3]; in assay [4]; at Rab-like protein 3; in assay [5]) was > 30 µM (inactive) in each case. Further, the Kd in assay [6] and in assay [7] was > 30 µM (inactive) in each case.

`N#CCNC(=O)c1ccc(-c2ccnc(Nc3ccc(N4CCOCC4)cc3)n2)cc1` [MOMELOTINIB]: the Kd was > 30 µM (inactive) in assay [1]; > 30 µM (inactive) in assay [2]; > 30 µM (inactive) in assay [3]; 0.286 µM (active) in assay [4]; > 30 µM (inactive) at Rab-like protein 3; > 30 µM (inactive) in assay [5]. In addition, the Kd in assay [6] and in assay [7] was > 30 µM (inactive) in each case.

Take `CCN1CCN(Cc2ccc(Nc3ncc(F)c(-c4cc(F)c5nc(C)n(C(C)C)c5c4)n3)nc2)CC1` [ABEMACICLIB]: the Kd (in assay [1]; in assay [2]; in assay [3]; in assay [4]; on Rab-like protein 3; in assay [5]) was > 30 µM (inactive) each time. Also, the Kd in assay [6] and in assay [7] was > 30 µM (inactive) in each case.

Take `C[C@@H]1COC(Nc2ccc3ncnc(Nc4ccc(OCc5nccs5)c(Cl)c4)c3c2)=N1` [VARLITINIB]: the Kd (in assay [1]; in assay [2]; in assay [3]; in assay [4]; at Rab-like protein 3; in assay [5]) was > 30 µM (inactive) each time. Also, the Kd in assay [6] and in assay [7] was > 30 µM (inactive) each time.

As to `C=CCN(/C=C1/C(=O)O[C@H](COC)[C@@]2(C)C1=C(O)C(=O)C1=C2[C@H](OC(C)=O)C[C@]2(C)C(=O)CC[C@@H]12)CC=C` [SONOLISIB], the Kd (in assay [1]; in assay [2]; in assay [3]; in assay [4]; on Rab-like protein 3; in assay [5]) was > 30 µM (inactive) in each case. Moreover, the Kd in assay [6] and in assay [7] was > 30 µM (inactive) throughout.

For the molecule `COCCN1CCN(Cc2ccc(-c3n[nH]c4c3C(=O)c3c(NC(=O)NN5CCOCC5)cccc3-4)cc2)CC1` [RGB-286638], the Kd (in assay [1]; in assay [2]; in assay [3]; in assay [4]; on Rab-like protein 3; in assay [5]) was > 30 µM (inactive) throughout. Also, the Kd in assay [6] was > 30 µM (inactive); in assay [7], 1.24 µM (active).

`COc1cccc(Nc2ncnn3ccc(CN4CC[C@@H](N)[C@H](O)C4)c23)c1` [BMS-690514]: the Kd (in assay [1]; in assay [2]; in assay [3]; in assay [4]; on Rab-like protein 3; in assay [5]) was > 30 µM (inactive) throughout. The Kd in assay [6] and in assay [7] was > 30 µM (inactive) throughout.

With `Cn1c(=O)c(F)c(Nc2ccc(I)cc2F)c2c(=O)n(C[C@@H](O)CO)cnc21` [TAK-733], the Kd (in assay [1]; in assay [2]; in assay [3]; in assay [4]; at Rab-like protein 3; in assay [5]) was > 30 µM (inactive) throughout. Moreover, the Kd in assay [6] and in assay [7] was > 30 µM (inactive) throughout.

`COc1cc(Nc2ncc(F)c(Nc3ccc4c(n3)N(COP(=O)(O)O)C(=O)C(C)(C)O4)n2)cc(OC)c1OC` [FOSTAMATINIB]: the Kd (in assay [1]; in assay [2]; in assay [3]; in assay [4]; on Rab-like protein 3; in assay [5]) was > 30 µM (inactive) throughout. For the same molecule, the Kd in assay [6] and in assay [7] was > 30 µM (inactive) throughout.

As to `C#Cc1cccc(Nc2ncnc3cc4c(cc23)OCCOCCOCCO4)c1` [ICOTINIB], the Kd (in assay [1]; in assay [2]; in assay [3]; in assay [4]; at Rab-like protein 3; in assay [5]) was > 30 µM (inactive) throughout. The Kd in assay [6] and in assay [7] was > 30 µM (inactive) each time.

As to `Cn1cc(-c2[nH]c3cc(NC(=O)[C@H](N)C4CCCCC4)cc4c3c2C=NNC4=O)cn1`, the Kd (in assay [1]; in assay [2]; in assay [3]; in assay [4]; at Rab-like protein 3; in assay [5]) was > 30 µM (inactive) throughout. Besides, the values for the Kd in assay [6] and in assay [7] were > 30 µM (inactive) and 1.11 µM (active), respectively.
